Assays:
[1] = molecular target: T1, GR (TAT induction in HepG2 cells) (Homo sapiens, UniProt P04150); test: cell-based; conditions: read-out: GR functional Ki
T1 construct: host or cells: HepG2 (human hepatocellular carcinoma)
T1 sequence (P04150 1-777): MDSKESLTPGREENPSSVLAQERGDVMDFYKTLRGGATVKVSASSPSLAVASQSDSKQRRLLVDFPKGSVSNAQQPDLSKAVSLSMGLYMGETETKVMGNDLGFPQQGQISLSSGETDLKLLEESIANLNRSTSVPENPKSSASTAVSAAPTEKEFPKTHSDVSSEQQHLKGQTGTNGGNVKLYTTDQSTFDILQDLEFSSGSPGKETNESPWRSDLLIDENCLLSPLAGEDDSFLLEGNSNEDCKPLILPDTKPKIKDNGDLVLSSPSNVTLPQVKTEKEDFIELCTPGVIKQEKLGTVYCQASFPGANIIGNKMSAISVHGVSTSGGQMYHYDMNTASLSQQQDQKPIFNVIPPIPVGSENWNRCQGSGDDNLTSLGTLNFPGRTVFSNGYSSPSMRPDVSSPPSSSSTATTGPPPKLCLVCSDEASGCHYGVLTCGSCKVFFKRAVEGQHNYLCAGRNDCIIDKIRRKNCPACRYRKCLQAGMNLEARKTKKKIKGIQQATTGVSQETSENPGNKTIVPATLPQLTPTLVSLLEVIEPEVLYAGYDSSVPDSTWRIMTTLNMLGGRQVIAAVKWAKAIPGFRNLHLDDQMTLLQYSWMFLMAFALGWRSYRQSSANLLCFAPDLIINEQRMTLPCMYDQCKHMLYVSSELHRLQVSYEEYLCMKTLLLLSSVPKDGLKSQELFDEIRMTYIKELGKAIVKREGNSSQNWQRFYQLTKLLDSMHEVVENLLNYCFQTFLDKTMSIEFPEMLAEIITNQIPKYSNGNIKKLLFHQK
Protocol: Glucocorticoid mediated activation of TAT occurs by transactivation of glucocorticoid response elements in the TAT promoter by glucocorticoid receptor-agonist complex.
TAT activity was measured as outlined in the literature by A. Ali et al., J. Med. Chem., 2004, 47, 2441-2452.
HepG2 cells were cultured using MEME media supplemented with 10% (v/v) foetal bovine serum; 2 mM L-glutamine and 1% (v/v) NEAA at 37° C., 5%/95% (v/v) CO2/air. The HepG2 cells were counted and adjusted to yield a density of 0.125×10^6 cells/ml in RPMI 1640 without phenol red, 10% (v/v) charcoal stripped FBS, 2 mM L-glutamine and seeded at 25,000 cells/well in 200 μl into 96 well, sterile, tissue culture micro titre plates, and incubated at 37° C., 5% CO2 for 24 hours
Growth media was removed and replaced with assay media {RPMI 1640 without phenol red, 2 mM L-glutamine+10 μM forskolin}. […] Compounds were serially half log diluted in 100% (v/v) dimethylsupfoxide from a 10 mM stock.
HepG2 cells were then lysed with 30 μl of cell lysis buffer containing a protease inhibitor cocktail for 15 minutes at 4° C. 155 μl of substrate mixture was then added containing 5.4 mM Tyrosine sodium salt, 10.8 mM alpha ketoglutarate and 0.06 mM pyridoxal 5′ phosphate in 0.1M potassium phosphate buffer (pH 7.4). After 2 hours incubation at 37° C. the reaction was terminated by the addition of 15 μl of 10M aqueous potassium hydroxide solution, and the plates incubated for a further 30 minutes at 37° C. The TAT activity product was measured by absorbance at λ 340 nm.
[compound] and fitting the data to a 4 parameter logistic equation.

human recombinant GR = molecular target: T2, human recombinant GR (Homo sapiens, UniProt P04150); test: Human GR fluorescence polarisation (FP) binding assay (Example 23)
T2 construct: purchased PanVera P2812
T2 sequence (P04150 1-777): T1 sequence (P04150 1-777)
Protocol: The following is a description of a FP assay for measuring compound inhibition of labelled glucocorticoid binding to the human recombinant GR.
The binding affinity of test compounds was determined using a FP binding assay using human recombinant GR (PanVera P2812) and a fluorescent labelled glucocorticoid ligand (Fluorome GS Red) (PanVera P2894). The presence of inhibitors prevents the formation of a GS Red/GR complex resulting in a decrease in the measured polarisation value. The change in polarisation value in the presence of test compounds is used to calculate the binding affinity of the compound for GR.
This assay was performed in 384 well, black, round-bottom, polypropylene micro titre plates in a final volume of 20 μl. The assay contained 5 μl 1 nM GR (final concentration), 5 μl 0.5 nM Fluorome GS Red (final concentration) in the presence of 10 μl test compounds. Positive control wells (high polarisation) receive, 10 μl 2% (v:v) DMSO vehicle (1% (v/v) final concentration)+5 μl 1 nM GR and 5 μl 0.5 nM Fluorome GS Red. […] Assay blank background wells (used for normalisation) receive 15 μl 1×GS screening buffer+5 μl GR.
For the IC50 determination (concentration of compound that displaces 50% of the bound GS Red), compounds were tested at eight different concentrations in duplicate in two independently performed experiments. Compounds were prepared as solubilised solids at 10 mM in DMSO. On the day of assay, an 8 point half-log serial dilution (55 μl DMSO+25 μl compound solution) was prepared. A 1:50 dilution (1 μl compound solution+49 μl 1×GR screening buffer) was prepared for each compound. The compounds were prepared at 2× final assay concentration.
The plates were mixed and incubated for 4 hour at room temperature. FP was measured using an Envision Excite plate reader with 535 nm excitation and 590 nm emission interference filters.
Milli-polarisation (mP) values were calculated using the below equation—
where S and P are assay blank background subtracted fluorescence units, G=G-factor (1.07).
Compound IC50 values were calculated by plotting a [compound] v. % inhibition curve and fitting the data to a 4-parameter logistic fit equation.
Reagents. 10×GR screening buffer (100 mM potassium phosphate pH 7.4, 200 mM Na2MoO4, 1 mM EDTA, 20% (v/v) DMSO). To prepare 1×GR screening buffer, combine 1 ml 10×GR screening buffer (PanVera P2814)+1 ml stabilising peptide (PanVera P2815)+7.95 ml 4° C. MQ water. Add 50 μl 1M DTT, vortex and place on ice until use.

Row | Structure (SMILES) | Ki [1] [µM] | Ki (human recombinant GR) [µM]
1 | COC[C@]12Cc3cnn(-c4ccc(F)cc4)c3C=C1CCN(S(=O)(=O)c1ccc(N3CCC(C)(C)C3)cc1)C2 [Example 21, (R)-1-(4-Fluoro-phenyl)-6-[4-(3,3-dimethylpyrrolidin-1-yl)-benzenesulfonyl]-4a-methoxymethyl-4,4a,5,6,7,8-hexahydro-1H-1,2,6-triaza-cyclopenta[b]naphthalene] | > 0.1 | < 0.0005
2 | COC[C@]12Cc3cnn(-c4ccc(F)cc4)c3C=C1CCN(S(=O)(=O)c1ccc(N3CCC(F)(F)C3)cc1)C2 [Example 16, (R)-1-(4-Fluoro-phenyl)-6-[4-(3,3-difluoropyrrolidin-1-yl)-benzenesulfonyl]-4a-methoxymethyl-4,4a,5,6,7,8-hexahydro-1H-1,2,6-triaza-cyclopenta[b]naphthalene] | > 0.1 | < 0.0005
3 | COC[C@]12Cc3cnn(-c4ccc(F)cc4)c3C=C1CCN(S(=O)(=O)c1ccc(N3CCCCC3)cc1)C2 [Example 20, (R)-1-(4-Fluoro-phenyl)-6-[4-(piperidin-1-yl)-benzenesulfonyl]-4a-methoxymethyl-4,4a,5,6,7,8-hexahydro-1H-1,2,6-triaza-cyclopenta[b]naphthalene] | 0.05 to 0.1 | < 0.0005

Results, then the molecule that gave them:

Row | Ki [1] [µM] | Ki (human recombinant GR) [µM] | Structure (SMILES)
4 | > 0.1 | < 0.0005 | COC[C@]12Cc3cnn(-c4ccc(F)cc4)c3C=C1CCN(S(=O)(=O)c1ccc(N3CC[C@H](OC)C3)cc1)C2 [Example 19, (R)-1-(4-Fluoro-phenyl)-6-[4-((S)-3-methoxypyrrolidin-1-yl)-benzenesulfonyl]-4a-methoxymethyl-4,4a,5,6,7,8-hexahydro-1H-1,2,6-triaza-cyclopenta[b]naphthalene]
5 | 0.05 to 0.1 | 0.0005 to 0.001 | COC[C@@H]1CCCN1c1ccc(S(=O)(=O)N2CCC3=Cc4c(cnn4-c4ccc(F)cc4)C[C@]3(COC)C2)cc1 [Example 18, (R)-1-(4-Fluoro-phenyl)-6-[4-((S)-2-(methoxymethyl)pyrrolidin-1-yl)-benzenesulfonyl]-4a-methoxymethyl-4,4a,5,6,7,8-hexahydro-1H-1,2,6-triaza-cyclopenta[b]naphthalene]
6 | > 0.1 | < 0.0005 | COC[C@]12Cc3cnn(-c4ccc(F)cc4)c3C=C1CCN(S(=O)(=O)c1ccc(N3CCC[C@H]3C)cc1)C2 [Example 17, (R)-1-(4-Fluoro-phenyl)-6-[4-((R)-2-methylpyrrolidin-1-yl)-benzenesulfonyl]-4a-methoxymethyl-4,4a,5,6,7,8-hexahydro-1H-1,2,6-triaza-cyclopenta[b]naphthalene]

Reference: patent US20130225633A1, “PHENYL HETEROCYCLOALKYL GLUCOCORTICOID RECEPTOR MODULATORS” (Corcept Therapeutics, Inc., priority 2012, published 2013)
